{"source": "ChEMBL document CHEMBL4311992", "about": "“Discovery of 3-(((9H-purin-6-yl)amino)methyl)-4,6-dimethylpyridin-2(1H)-one derivatives as novel tubulin polymerization inhibitors for treatment of cancer” (Eur J Med Chem, 2019)", "key": {"HCT-116 [1]": {"test_system": "HCT-116", "test": "Induction of apoptosis in human HCT116 cells assessed as late apoptotic cells at 100 nM measured after 48 hrs by Annexin V-FITC/propidium iodide staining-based flow cytometry (reference value: 3.87%)", "assay_type": "functional"}, "[2]": {"target": "SRSF protein kinase 2 (Homo sapiens) (UniProt P78362)", "sequence (P78362 whole entry, looked up)": "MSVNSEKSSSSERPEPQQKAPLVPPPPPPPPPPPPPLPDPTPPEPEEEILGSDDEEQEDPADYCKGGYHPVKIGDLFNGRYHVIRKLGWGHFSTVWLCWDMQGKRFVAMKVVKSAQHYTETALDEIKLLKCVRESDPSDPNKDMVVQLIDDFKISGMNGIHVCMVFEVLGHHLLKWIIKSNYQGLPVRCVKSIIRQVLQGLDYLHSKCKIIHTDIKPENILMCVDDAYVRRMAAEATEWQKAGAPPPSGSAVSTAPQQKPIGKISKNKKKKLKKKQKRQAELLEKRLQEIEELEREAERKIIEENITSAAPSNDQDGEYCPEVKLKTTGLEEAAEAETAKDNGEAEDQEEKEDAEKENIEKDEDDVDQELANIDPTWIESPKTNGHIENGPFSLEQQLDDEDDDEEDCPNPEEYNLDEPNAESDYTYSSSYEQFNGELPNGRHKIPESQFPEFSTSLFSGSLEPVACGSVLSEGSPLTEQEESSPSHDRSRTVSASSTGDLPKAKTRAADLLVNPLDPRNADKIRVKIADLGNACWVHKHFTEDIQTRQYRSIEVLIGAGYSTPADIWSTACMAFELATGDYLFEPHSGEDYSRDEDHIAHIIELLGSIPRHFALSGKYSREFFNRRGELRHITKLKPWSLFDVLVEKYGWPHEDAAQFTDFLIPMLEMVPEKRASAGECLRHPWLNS", "test": "Inhibition of human SRPK2 (46 to end residues) using RSRSRSRSRSRSRSR as substrate measured after 40 mins in presence of [gamma33P]ATP by scintillation counting method", "design": "scale not given: the % may be the effect or the level left"}, "[3]": {"test_system": "Epidermal growth factor receptor (Homo sapiens), P00533 [T790M]", "test": "Inhibition of recombinant human EGFR T790M mutant (696 to end residues) assessed as residual activity at 10 uM using GGMEDIYFEFMGGKKK as substrate measured after 40 mins in presence of [gamma33P]ATP by scintillation counting method"}, "[4]": {"target": "Serine/threonine-protein kinase 33 (Homo sapiens) (UniProt Q9BYT3)", "sequence (Q9BYT3 whole entry, looked up)": "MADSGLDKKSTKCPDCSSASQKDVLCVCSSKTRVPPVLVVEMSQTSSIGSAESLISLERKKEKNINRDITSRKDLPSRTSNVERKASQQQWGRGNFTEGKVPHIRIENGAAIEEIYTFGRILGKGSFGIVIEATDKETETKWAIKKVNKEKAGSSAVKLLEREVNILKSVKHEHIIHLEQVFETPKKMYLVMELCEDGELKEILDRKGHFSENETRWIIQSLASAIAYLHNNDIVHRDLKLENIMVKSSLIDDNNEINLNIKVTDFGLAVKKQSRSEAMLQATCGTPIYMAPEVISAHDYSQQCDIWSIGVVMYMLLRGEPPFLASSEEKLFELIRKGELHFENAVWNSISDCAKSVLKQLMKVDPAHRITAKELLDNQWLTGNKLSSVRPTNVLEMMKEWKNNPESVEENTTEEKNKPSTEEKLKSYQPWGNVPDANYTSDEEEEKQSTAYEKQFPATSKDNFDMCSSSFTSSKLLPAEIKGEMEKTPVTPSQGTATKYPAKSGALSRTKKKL", "test": "Inhibition of recombinant full-length human STK33 assessed as residual activity at 10 uM using myelin basic protein as substrate measured after 40 mins in presence of [gamma33P]ATP by scintillation counting method"}, "[5]": {"target": "Cyclin-dependent kinase-like 1 (Homo sapiens) (UniProt Q00532)", "test": "Inhibition of recombinant human CDKL1 (1 to 303 residues) assessed as residual activity at 10 uM using RRRFRPASPLRGP as substrate measured after 120 mins in presence of [gamma33P]ATP by scintillation counting method"}, "[6]": {"test_system": "Serine/threonine-protein kinase N1 (Homo sapiens), Q16512 [V901I]", "test": "Inhibition of human PRK1 V901I mutant (498 to end residues) using KKLNRTLSFAEPG as substrate measured after 40 mins in presence of [gamma33P]ATP by scintillation counting method", "design": "scale not given: the % may be the effect or the level left"}, "[7]": {"target": "Homeodomain-interacting protein kinase 3 (Homo sapiens) (UniProt Q9H422)", "test": "Inhibition of recombinant human HIPK3 (161 to 562 residues) assessed as residual activity at 10 uM using myelin basic protein as substrate measured after 40 mins in presence of [gamma33P]ATP by scintillation counting method"}, "[8]": {"target": "3-phosphoinositide-dependent protein kinase 1 (Homo sapiens) (UniProt O15530)", "test": "Inhibition of recombinant human PDK1 (52 to end residues) assessed as residual activity at 10 uM using PDKtide as substrate measured after 40 mins in presence of [gamma33P]ATP by scintillation counting method"}, "Homo sapiens": {"species_on_record": "Homo sapiens", "test": "Inhibition of recombinant full-length human PI3K p110delta/p85alpha N253S mutant assessed as residual activity at 10 uM using phosphatidylinositol-4, 5-bisphosphate as substrate measured after 40 mins by fluorescence assay"}, "[9]": {"target": "Tyrosine-protein kinase HCK (Homo sapiens) (UniProt P08631)", "sequence (P08631 2-526 limits assumed)": "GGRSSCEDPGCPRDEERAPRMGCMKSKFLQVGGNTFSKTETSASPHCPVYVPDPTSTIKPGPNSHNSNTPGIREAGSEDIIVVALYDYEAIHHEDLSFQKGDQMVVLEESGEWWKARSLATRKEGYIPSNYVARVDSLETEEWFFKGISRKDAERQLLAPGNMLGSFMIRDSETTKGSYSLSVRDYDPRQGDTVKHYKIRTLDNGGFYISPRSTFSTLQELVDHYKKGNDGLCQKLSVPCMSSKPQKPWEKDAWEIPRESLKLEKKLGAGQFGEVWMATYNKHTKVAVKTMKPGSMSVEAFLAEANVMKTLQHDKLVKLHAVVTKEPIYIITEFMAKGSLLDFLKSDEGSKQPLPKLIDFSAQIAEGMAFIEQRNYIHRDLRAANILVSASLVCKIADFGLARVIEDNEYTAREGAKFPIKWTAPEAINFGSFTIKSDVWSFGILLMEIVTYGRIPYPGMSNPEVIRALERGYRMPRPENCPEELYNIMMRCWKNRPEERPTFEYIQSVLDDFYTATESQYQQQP", "test": "Inhibition of recombinant human HCK (230 to 497 residues) assessed as residual activity at 10 uM using Cdc2 peptide as substrate measured after 40 mins in presence of [gamma33P]ATP by scintillation counting method"}, "HCT-116 [10]": {"test_system": "HCT-116", "test": "Induction of apoptosis in human HCT116 cells assessed as necrotic cells at 25 nM measured after 48 hrs by Annexin V-FITC/propidium iodide staining-based flow cytometry (reference value: 1.16%)", "assay_type": "functional"}, "[11]": {"target": "Dual specificity mitogen-activated protein kinase kinase 6 (Homo sapiens) (UniProt P52564)", "sequence (P52564 whole entry)": "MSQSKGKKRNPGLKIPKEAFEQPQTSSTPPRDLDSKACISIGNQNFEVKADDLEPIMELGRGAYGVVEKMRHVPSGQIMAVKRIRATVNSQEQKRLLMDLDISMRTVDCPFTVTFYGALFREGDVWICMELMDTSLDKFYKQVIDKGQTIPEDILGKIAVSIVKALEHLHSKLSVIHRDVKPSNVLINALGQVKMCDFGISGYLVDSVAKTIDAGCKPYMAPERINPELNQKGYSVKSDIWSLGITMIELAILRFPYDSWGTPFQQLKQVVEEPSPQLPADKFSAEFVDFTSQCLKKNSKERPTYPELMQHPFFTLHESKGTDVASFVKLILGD", "test": "Inhibition of recombinant human MKK6 (4 to end residues) assessed as residual activity at 10 uM using unactive SAPK2a as substrate measured after 40 mins in presence of [gamma33P]ATP by scintillation counting method"}, "SW-620": {"test_system": "SW-620", "test": "Antiproliferative activity against human SW620 cells assessed as reduction in cell viability after 72 hrs by MTT assay", "assay_type": "functional, cell-based", "details": "SW-620, 72 h"}, "[12]": {"target": "Serine/threonine-protein kinase MRCK alpha (Homo sapiens) (UniProt Q5VT25)", "test": "Inhibition of recombinant human MRCKalpha (1 to 473 residues) assessed as residual activity at 10 uM using KKRNRTLTV as substrate measured after 40 mins in presence of [gamma33P]ATP by scintillation counting method"}, "[13]": {"target": "PI3-kinase p110-alpha/p85-alpha (Homo sapiens) (UniProt P27986+P42336)", "test": "Inhibition of recombinant full-length human PI3K p110alpha/p85alpha assessed as residual activity at 10 uM using phosphatidylinositol-4, 5-bisphosphate as substrate measured after 40 mins by fluorescence assay", "assay_type": "protein-complex assay"}, "HCT-15": {"test_system": "HCT-15", "test": "Antiproliferative activity against human HCT15 cells assessed as reduction in cell viability after 72 hrs by MTT assay", "assay_type": "functional, cell-based", "details": "HCT-15, 72 h"}, "[14]": {"target": "MAP/microtubule affinity-regulating kinase 4 (Homo sapiens) (UniProt Q96L34)", "sequence (Q96L34 whole entry)": "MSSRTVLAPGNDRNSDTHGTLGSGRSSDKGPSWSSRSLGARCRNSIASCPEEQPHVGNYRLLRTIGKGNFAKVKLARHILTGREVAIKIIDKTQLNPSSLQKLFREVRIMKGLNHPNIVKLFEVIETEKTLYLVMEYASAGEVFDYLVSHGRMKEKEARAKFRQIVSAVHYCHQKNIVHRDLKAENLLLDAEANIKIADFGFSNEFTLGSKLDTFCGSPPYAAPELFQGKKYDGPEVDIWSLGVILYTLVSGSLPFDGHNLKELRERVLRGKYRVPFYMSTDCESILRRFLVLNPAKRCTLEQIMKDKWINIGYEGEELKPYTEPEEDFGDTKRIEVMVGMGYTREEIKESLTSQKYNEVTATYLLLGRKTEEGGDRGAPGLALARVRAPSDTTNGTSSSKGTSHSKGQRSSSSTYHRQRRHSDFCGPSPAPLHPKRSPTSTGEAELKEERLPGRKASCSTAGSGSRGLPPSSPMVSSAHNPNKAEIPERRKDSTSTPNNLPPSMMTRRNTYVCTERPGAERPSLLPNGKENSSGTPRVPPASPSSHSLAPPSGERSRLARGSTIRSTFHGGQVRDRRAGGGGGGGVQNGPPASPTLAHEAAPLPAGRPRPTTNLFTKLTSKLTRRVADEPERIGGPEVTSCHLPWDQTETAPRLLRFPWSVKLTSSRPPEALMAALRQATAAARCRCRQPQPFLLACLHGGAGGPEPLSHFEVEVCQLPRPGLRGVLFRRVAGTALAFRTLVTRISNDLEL", "test": "Inhibition of recombinant full-length human MARK4 assessed as residual activity at 10 uM using KKKVSRSGLYRSPSMPENLNRPR as substrate measured after 40 mins in presence of [gamma33P]ATP by scintillation counting method"}, "[15]": {"target": "Serine/threonine-protein kinase PAK 3 (Homo sapiens) (UniProt O75914)", "test": "Inhibition of recombinant full-length human PAK3 assessed as residual activity at 10 uM using RRRLSFAEPG as substrate measured after 40 mins in presence of [gamma33P]ATP by scintillation counting method"}, "[16]": {"target": "Serine/threonine-protein kinase tousled-like 2 (Homo sapiens) (UniProt Q86UE8)", "sequence (Q86UE8 whole entry, looked up)": "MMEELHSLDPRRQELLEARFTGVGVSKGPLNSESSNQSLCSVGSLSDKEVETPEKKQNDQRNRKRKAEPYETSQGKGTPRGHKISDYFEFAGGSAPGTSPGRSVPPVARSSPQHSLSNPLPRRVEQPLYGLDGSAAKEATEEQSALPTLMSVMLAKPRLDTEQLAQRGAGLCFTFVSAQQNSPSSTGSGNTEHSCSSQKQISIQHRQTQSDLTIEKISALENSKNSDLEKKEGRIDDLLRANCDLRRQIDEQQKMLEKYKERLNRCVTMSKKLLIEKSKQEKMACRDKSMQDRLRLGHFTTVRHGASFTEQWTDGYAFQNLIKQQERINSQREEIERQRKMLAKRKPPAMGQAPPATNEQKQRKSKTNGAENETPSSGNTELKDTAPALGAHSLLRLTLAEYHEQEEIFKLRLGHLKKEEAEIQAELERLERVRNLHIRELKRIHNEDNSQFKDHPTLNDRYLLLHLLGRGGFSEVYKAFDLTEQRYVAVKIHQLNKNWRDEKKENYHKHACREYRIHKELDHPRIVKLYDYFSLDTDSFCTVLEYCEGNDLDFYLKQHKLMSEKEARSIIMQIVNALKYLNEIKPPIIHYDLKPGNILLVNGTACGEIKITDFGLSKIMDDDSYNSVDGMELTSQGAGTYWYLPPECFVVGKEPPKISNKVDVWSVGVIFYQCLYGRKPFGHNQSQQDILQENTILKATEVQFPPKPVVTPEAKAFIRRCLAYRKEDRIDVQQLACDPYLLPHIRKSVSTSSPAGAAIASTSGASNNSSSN", "test": "Inhibition of human TLK2 (387 to end residues) using casein as substrate measured after 40 mins in presence of [gamma33P]ATP by scintillation counting method", "design": "scale not given: the % may be the effect or the level left"}, "HepG2": {"test_system": "HepG2", "test": "cells", "details": "Homo sapiens, HepG2, 72 h"}, "[17]": {"target": "Receptor-interacting serine/threonine-protein kinase 2 (Homo sapiens) (UniProt O43353)", "sequence (O43353 whole entry, the tested form may be a part)": "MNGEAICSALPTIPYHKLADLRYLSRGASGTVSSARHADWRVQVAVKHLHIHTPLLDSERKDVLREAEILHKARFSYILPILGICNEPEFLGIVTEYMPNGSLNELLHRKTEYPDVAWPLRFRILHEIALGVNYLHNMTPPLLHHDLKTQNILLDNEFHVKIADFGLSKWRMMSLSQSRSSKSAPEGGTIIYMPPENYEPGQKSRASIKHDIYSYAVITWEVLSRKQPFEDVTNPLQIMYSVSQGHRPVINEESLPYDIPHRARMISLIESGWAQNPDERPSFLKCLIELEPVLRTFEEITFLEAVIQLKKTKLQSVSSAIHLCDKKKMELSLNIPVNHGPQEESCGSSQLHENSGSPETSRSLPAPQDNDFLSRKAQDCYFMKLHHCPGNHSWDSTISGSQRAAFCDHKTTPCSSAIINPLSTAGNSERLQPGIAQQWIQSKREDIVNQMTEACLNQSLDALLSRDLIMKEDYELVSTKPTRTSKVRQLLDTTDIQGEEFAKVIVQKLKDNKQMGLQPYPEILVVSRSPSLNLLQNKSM", "test": "Inhibition of human RIPK2 (1 to 299 residues) using myelin basic protein as substrate measured after 120 mins in presence of [gamma33P]ATP by scintillation counting method", "design": "scale not given: the % may be the effect or the level left"}, "[18]": {"target": "Tyrosine-protein kinase Yes (Homo sapiens) (UniProt P07947)", "test": "Inhibition of recombinant full-length human Yes assessed as residual activity at 10 uM using poly(Glu, Tyr) 4:1 as substrate measured after 40 mins in presence of [gamma33P]ATP by scintillation counting method"}, "[19]": {"target": "Tyrosine-protein kinase SYK (Homo sapiens) (UniProt P43405)", "test": "Inhibition of recombinant full-length human Syk assessed as residual activity at 10 uM using poly(Glu, Tyr) 4:1 as substrate measured after 120 mins in presence of [gamma33P]ATP by scintillation counting method"}, "[20]": {"target": "Phosphatidylinositol 4-phosphate 5-kinase type-1 gamma (Homo sapiens) (UniProt O60331)", "sequence (O60331 whole entry)": "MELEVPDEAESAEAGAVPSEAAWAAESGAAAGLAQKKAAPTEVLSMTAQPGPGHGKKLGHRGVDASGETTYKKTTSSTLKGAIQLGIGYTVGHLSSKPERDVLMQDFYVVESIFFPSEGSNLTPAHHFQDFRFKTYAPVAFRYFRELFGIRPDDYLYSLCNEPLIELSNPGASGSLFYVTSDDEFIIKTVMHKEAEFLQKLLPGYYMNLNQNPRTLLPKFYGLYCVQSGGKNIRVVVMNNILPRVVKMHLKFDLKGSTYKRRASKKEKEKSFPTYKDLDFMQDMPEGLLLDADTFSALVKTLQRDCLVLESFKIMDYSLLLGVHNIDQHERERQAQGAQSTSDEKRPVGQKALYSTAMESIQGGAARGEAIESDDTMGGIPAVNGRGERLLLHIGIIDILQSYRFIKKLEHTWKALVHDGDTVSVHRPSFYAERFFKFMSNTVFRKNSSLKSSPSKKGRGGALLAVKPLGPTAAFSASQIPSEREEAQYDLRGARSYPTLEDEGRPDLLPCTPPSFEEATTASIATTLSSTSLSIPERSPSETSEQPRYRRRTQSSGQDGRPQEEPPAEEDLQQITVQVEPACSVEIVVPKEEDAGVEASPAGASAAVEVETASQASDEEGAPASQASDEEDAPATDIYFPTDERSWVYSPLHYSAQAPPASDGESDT", "test": "Inhibition of recombinant full-length human PIP5K1gamma assessed as residual activity at 10 uM using phosphatidylinositol 4-phosphate as substrate measured after 40 mins by HTRF assay"}, "[21]": {"target": "Dual specificity tyrosine-phosphorylation-regulated kinase 1B (Homo sapiens) (UniProt Q9Y463)", "test": "Inhibition of recombinant full-length human DYRK1B assessed as residual activity at 10 uM using RRRFRPASPLRGPPK as substrate measured after 40 mins in presence of [gamma33P]ATP by scintillation counting method"}}}
{"smiles": "Cc1cc(C)c(CNc2nc(Cl)nc3c2ncn3C2CCCC2)c(=O)[nH]1", "values": [{"measurement": "Activity", "setting": "HCT-116 [1]", "result": 42.6, "unit": "%"}, {"measurement": "Activity", "setting": "[2]", "result": 106, "unit": "%"}, {"measurement": "Activity", "setting": "[3]", "result": 102, "unit": "%"}, {"measurement": "Activity", "setting": "[4]", "result": 86.5, "unit": "%"}, {"measurement": "Activity", "setting": "[5]", "result": 122, "unit": "%"}, {"measurement": "Activity", "setting": "[6]", "result": 98.5, "unit": "%"}, {"measurement": "Activity", "setting": "[7]", "result": 106, "unit": "%"}, {"measurement": "Activity", "setting": "[8]", "result": 91, "unit": "%"}, {"measurement": "Activity", "setting": "Homo sapiens", "result": 99.5, "unit": "%"}, {"measurement": "Activity", "setting": "[9]", "result": 106, "unit": "%"}, {"measurement": "Activity", "setting": "HCT-116 [10]", "result": 0.846, "unit": "%"}, {"measurement": "Activity", "setting": "[11]", "result": 114, "unit": "%"}, {"measurement": "IC50", "setting": "SW-620", "result": 60, "unit": "nM"}, {"measurement": "Activity", "setting": "[12]", "result": 110, "unit": "%"}, {"measurement": "Activity", "setting": "[13]", "result": 99.5, "unit": "%"}, {"measurement": "IC50", "setting": "HCT-15", "result": 61, "unit": "nM"}, {"measurement": "Activity", "setting": "[14]", "result": 123, "unit": "%"}, {"measurement": "Activity", "setting": "[15]", "result": 134, "unit": "%"}, {"measurement": "Activity", "setting": "[16]", "result": 119, "unit": "%"}, {"measurement": "IC50", "setting": "HepG2", "result": 80, "unit": "nM"}, {"measurement": "Activity", "setting": "[17]", "result": 106, "unit": "%"}, {"measurement": "Activity", "setting": "[18]", "result": 79, "unit": "%"}, {"measurement": "Activity", "setting": "[19]", "result": 123, "unit": "%"}, {"measurement": "Activity", "setting": "[20]", "result": 99.5, "unit": "%"}, {"measurement": "Activity", "setting": "[21]", "result": 100, "unit": "%"}]}
